The term % inhibition denotes the relative decrease from the control value, in per cent. One may read the inhibition as the relative decrease from the control value, in per cent. A lower inhibition goes with little suppression.

Data on eight compounds can be found in patent US20160030364A1, “Therapeutic Compositions and Uses Thereof” (MANUKA HEALTH NEW ZEALAND LIMITED, priority 2013, published 2016).

Holding throughout (type): cell-based
Test [1] has as its system human gastric carcinoma cell line (NCI-N87). The test can be described thus: MTT anti-proliferative assay, NCI-N87 (Examples 3-12). The conditions noted are these: 200 μg/ml; for % inhibition / % stim. / Mean OD (570 nm): 48 hours. The protocol: (§1) 5-phenylpenta-2,4-dienoic acid was assessed for its ability to modulate the viability and proliferation of human colorectal adenocarcinoma cells (DLD-1); human colon cancer cell line (HCT-116); human gastric carcinoma cell line (NCI-N87); and human oesophageal squamous cell carcinoma cell line (KYSE-30) as assessed by the MTT assay. The positive control, 5-fluorouracil (5-FU) was included at three concentrations; in addition to an unsupplemented cell control as a negative control in the study. The 5-phenylpenta-2,4-dienoic acid was a genuine standard with chemical structure confirmed by NMR and MS.
(§2) The four human gastrointestinal carcinoma cell lines were revived from cryostorage and cultured in the presence of the test and reference samples. An MTT assay was then performed on the cultures to determine the effect of the samples on the cell viability and proliferation.
(§3) The test sample 5-phenylpenta-2,4-dienoic acid, and all other test samples in Examples 4-12 (except tectochrysln) were Initially dissolved in pure ethanol to a concentration of around 13.35 mg/ml. Tectochrysin was initially dissolved in triethylene glycol mono-methyl ether to the same concentration. Working solutions were then prepared from the stock solutions by dilution to 15% ethanol/Hanks Balanced Salt Solution (ETOH)/HBSS to a concentration of 2 mg/mL solids. In the assay the final concentration of the samples was 200 μg/ml with a final EtOH concentration of 1.5%. Final concentrations of test compounds and propolis prepared as above are as noted in Example 3.
(§4) • 1. Human colorectal adenocarcinoma cells (ATCC CCI-221, DLD-1)(ATCC, Bethesda, Md., USA) • 2. Human gastric carcinoma cells (ATCC CRL-5822, NCI-N87)(ATCC, Bethesda, Md., USA) • 3. Human oesophageal squamous cell carcinoma (ECACC, KYSE-30)(Sigma Aldrich, Auckland, NZ) • 4. Human colon carcinoma cells (ECACC HCT-116)(Sigma Aldrich, Auckland, NZ) • 5. Penicillin-streptomycin solution: 10000 units/ml penicillin, 10 mg/ml streptomycin in 0.9% NaCl (Sigma Cat #P-0781). Stored at −20° C. • 6. For DLD-1 cells: DMEM culture medium (Invitrogen Cat #12100-046). Stored at 4° C. • 7. For NCI-N87 cells: RPMI-1640 medium modified to contain 2 mM L-glutamine, 10 mM HEPES, 1 mM sodium pyruvate, 4500 mg/L glucose, and 1500 mg/L sodium bicarbonate (Sigma R6504). Stored at 4° C. • 8. For KYSE-410 cells: RPMI-1640 medium modified to contain 2 mM L-glutamine (Sigma R6504). Stored at 4° C. • 9. For HCT-116 cells: McCoy's 5A medium modified to contain 2 mM L-glutamine (Sigma M48792). Stored at 4° C. • 10. Trypsin-EDTA solution: 0.25% Trypsin/EDTA, Invitrogen Cat#15400054 (×10 in stock). • 11. Phosphate buffered saline (PBS) (Prepared by TBL). • 12. Hanks Balanced Salt Solution (HBSS). (GIBCO Cat No. 14185-052). Stored at 4° C. • 13. Foetal Bovine Serum (GIBCO Cat #10091-148). Stored at −20° C. • 14. MTT Reagent: 100 mg/vial, (SIGMA Cat. No. M-2128) dissolved in PBS at 10 mg/ml and stored at −20° C. 5 mg/ml MTT solution will be prepared in PBS and stored at 4° C. as working solution. • 15. MTT lysis buffer: 10% sodium dodecyl sulphate (SDS)/45% Dimethyl Formamide (20 g SDS will be dissolved in 100 ml of double-distilled water (DDW), and 90 ml of Dimethyl Formamide will be added to the SDS solution). The pH will be adjusted to 4.7 by glacial acetic acid, and DDW added up to a final volume of 200 ml. • 16. 5-Fluorouracil (5-FU), (Sigma Cat. No. F-6627). Three working solutions will be prepared at 19.5 μg/ml. 6.5 μg/ml and 1.95 μg/ml dissolved in 15% Ethanol/HBSS. Final concentrations will be 1.95 μg/ml (15 μM), 0.65 μg/ml (5 μM) and 0.195 μg/ml (1.5 μM).
(§5) The medium for the propagation of the each of the cells lines is given above. Each medium was prepared following the ATCC/ECACC instructions and supplemented with penicillin-streptomycin solution (10 ml per litre). FBS (at 10%) was added just before use.
• 1. […]
(Tetrazolium dyes change colour on reduction, which living cells bring about.)

The test system of test [2] is human colorectal adenocarcinoma cells (DLD-1). The test can be described thus: MTT anti-proliferative assay, DLD-1 (Examples 3-12). The following applies: 200 μg/ml; for % inhibition / % stim. / Mean OD (570 nm): 48 hours. Here is the method:
as §1, §2, §3, §4, §5
• 1. […]

The test system of test [3] is human oesophageal squamous cell carcinoma cell line (KYSE-30). Put plainly: MTT anti-proliferative assay, KYSE-30 (Examples 3-13). The conditions noted are these: Examples 3-12, 200 μg/ml, 48 hours. The protocol:
as §1, §2, §3, §4, §5
• 1. […]

The test system is the same in test [4]. The description is as above.
Test [5] concerns human colon cancer cell line (HCT-116). The test can be described thus: MTT anti-proliferative assay, HCT-116 (Examples 3-12). The conditions noted are these: 200 μg/ml; for % inhibition / % stim. / Mean OD (570 nm): 48 hours. The protocol: as §1, §2, §3, §4, §5
• 1. […]

Test [6] deals with human colorectal adenocarcinoma cells (DLD-1). The test can be described thus: MTT proliferation assay, DLD-1 (Examples 1-2). The following applies: Example 2, DLD-1, sample 200 μg/mL, 24 hours incubation; for inhibition at 200 µg/mL: Homo sapiens. The protocol:
Test samples shown below in Table 2 were assessed for their ability to modulate the viability and proliferation of human colorectal adenocarcinoma cells (DLD-1) as assessed by the MTT assay. A positive control, 5-fluorouracil (5-FU) was included in addition to an unsupplemented cell control (negative control) in the study. The test samples were obtained by fractionation of propolis tincture.
Test samples shown below in Table 2 were assessed for their ability to modulate the viability and proliferation of human colorectal adenocarcinoma cells (DLD-1) as assessed by the MTT assay. A positive control, 5-fluorouracil (5-FU) was included in addition to an unsupplemented cell control (negative control) in the study.
Human colorectal adenocarcinoma epithelial cell lines were revived from cryostorage and cultured in the presence of the test and reference samples. The culture conditions for the cells were those described by the supplier of the cells (ATCC). An MTT assay was then performed on the cultures to determine the effect of the samples on the cell proliferation.
Working solutions were prepared by dissolving the test fractions in 15% ethanol (ETOH)/HBSS to a concentration of 2 mg/mL solids.
• 1. Human colorectal adenocarcinoma cells (ATCC CCI-221, DLD-1). • 2. Penicillin-streptomycin solution: 10000 units/mL penicillin, 10 mg/mL streptomycin in 0.9% NaCl (Sigma Cat #P-0781). Stored at −20° C. • 3. DMEM culture medium (Invitrogen Cat #12100-046) Stored at −20° C. • 4. Trypsin-EDTA solution: 0.25% Trypsin/EDTA, Invitrogen Cat#15400054 (×10 in stock). • 5. Phosphate buffered saline (PBS) (Prepared by TBL). • 6. Hanks Balanced Salt Solution (HBSS). (GIBCO Cat No. 14185-052). Stored at 4° C. • 7. Foetal Bovine Serum (GIBCO Cat #10091-148). Stored at −20° C. • 8. MTT Reagent: 100 mg/vial, (SIGMA Cat. No. M-2128) dissolved in PBS at 10 mg/mL and stored at −20° C. 5 mg/mL MTT solution were prepared in PBS and stored at 4° C. as working solution. • 9. MTT lysis buffer: 10% sodium dodecyl sulphate (SDS)/45% Dimethyl Formamide (20 g SDS was dissolved in 100 mL of double-distilled water (DDW), and 90 mL of Dimethyl Formamide added to the SDS solution). The pH was adjusted to 4.7 by glacial acetic acid, and DDW added up to a final volume of 200 mL. • 10. 5-Fluorouracil (5-FU), (Sigma Cat. No. F-6627). Two working solutions were prepared at 150 ng/mL and 75 ng/mL, dissolved in 15% Ethanol/HBSS. Final concentrations were 7.50 ng/mL and 3.75 ng/mL.
The medium for the propagation of the colorectal adenocarcinoma (DLD-1) cells was DMEM, supplemented with penicillin-streptomycin solution (10 mL per litre). FBS was added just before use to give 10% w/v.
• 1. The human colorectal adenocarcinoma cells (DLD-1) obtained from the American Type Culture Collection USA were revived from cryostorage. • 2. Following initial propagation using the media described above (see Medium Preparation), the culture was subcultured using the trypsin-EDTA as follows. The media was removed and 5 mL of the trypsin-EDTA solution added and incubated at 37° C. for 5 min or until all the cells had detached. The trypsin was neutralised by adding an equal volume of DMEM medium and the culture centrifuged at 300 g (1200 rpm) for 5 min at 4° C. • 3. The supernatant was decanted and the cell pellets resuspended in medium DMEM, FBS (10%), penicillin (100 units/mL), streptomycin (100 μg/mL). The cells were cultured at 37° C. in 5% CO2/95% air. • 4. After reaching confluence, the cells were detached using trypsin-EDTA and centrifuged as described in 2 above. • 5. The supernatants were discarded and the cells resuspended in DMEM and supplements as described in 3 above at 1.0×10^4 cells per mL. • 6. Into each well of three 96 well plates, 180 μl of the cells (1,800 cells/well) or medium was added. The plates were incubated at 5% CO2/95% air at 37° C. for 48 h which was sufficient to allow the cells to adhere. • 7. To each well, 20 μl of each, of the test samples or positive control was added. […]

Where [7] appears, read: listed as 1,1-dimethylallylcaffeic acid.

Regarding 1,1-dimethylallyl caffeic acid, the “% inhibition” value in test [1] stood at 86.74%; in test [1] (setting [7]), 86.7%; in test [2], 93.24%; in test [2] (setting [7]) it was 93.2%; in test [3], 97.8%; in test [4] (Example 13, 100 μg/ml), 88.63%. Besides, the “% inhibition” value is on record as 96.73% in test [5] and 86.7% in test [5] (setting [7]). Further, the “% stim.” value in test [1], in test [2], in test [3] and in test [5] was 0% in each case. Besides, the “Mean OD (570 nm)” value is given as 0.0586 in test [1]; 0.0279 in test [2]; 0.0133 in test [3]; 0.0381 in test [4] (Example 13, 100 μg/ml); 0.0166 in test [5].

The compound `O=c1c(O)c(-c2ccccc2)oc2cc(O)cc(O)c12` [Galangin] returned an inhibition at 200 µg/mL in test [6] of 56.5%.

`COc1cc(/C=C/C(=O)OCc2ccccc2)ccc1O` [benzyl ferulate]: the “% inhibition” value in test [1] turned out to be 86.96%; in test [2], 86.02%; in test [3], 98.62%; in test [5], 95.92%. Further, the “% stim.” value in test [1], in test [2], in test [3] and in test [5] was 0% in each case. Moreover, the “Mean OD (570 nm)” value in test [1] turned out to be 0.0576; in test [2], 0.0576; in test [3] it was 0.0083; in test [4] (Example 13, 50 μg/ml), 0.0398; in test [5], 0.0207. For the same compound, the inhibition at 200 µg/mL in test [1] (Homo sapiens, NCI-N87, 48 h) turned out to be 87%; in test [2] (Homo sapiens, DLD-1, 48 h) it was 86%; in test [3] (Homo sapiens, KYSE-30, 48 h) it was 98.6%; in test [5] (Homo sapiens, HCT-116, 48 h), 95.9%. This compound also came in with an inhibition at 50 µg/mL in test [4] (Homo sapiens, KYSE-30, Example 13, 50 μg/ml) of 88.1%.

On to `O=C(O)/C=C/c1ccc(O)c(O)c1` [Caffeic acid], for which, in test [6], the “Mean OD (570 nm)” value was 0.0113 and the inhibition at 200 µg/mL was determined as 96.5%.

As to `O=C(/C=C/c1ccc(O)c(O)c1)OCCc1ccccc1` [CAPE, Caffeic acid phenethyl ester], the inhibition at 200 µg/mL in test [6] came out at 76%.

With `COc1cc(O)c2c(c1)OC(c1ccccc1)CC2=O` (stereo not drawn) [Pinocembrin 7-methyl ether], in test [6], the “% inhibition” value turned out to be 2.71% and the “Mean OD (570 nm)” value was determined as 0.3151. Moreover, the “% inhibition” value in test [6] (listed as #38 Pinocembrin 7-methyl ether) was determined as 2.7%.

For `O=c1cc(-c2ccccc2)oc2cc(O)cc(O)c12` [Chrysin], in test [6], the inhibition at 200 µg/mL is 61.9%.

For the compound `O=C(O)/C=C/c1ccccc1` [Trans-Cinnamic acid], in test [6], the “Mean OD (570 nm)” value was 0.2390 and the inhibition at 200 µg/mL was determined as 26.2%.
